Reference: US20180344715A1, “WNT/BETA-CATENIN SIGNAL TRANSDUCTION INHIBITORS AND THEIR USE IN TREATMENT OR PREVENTION OF DISEASES AND CONDITIONS LINKED WITH SAID TRANSDUCTION” (BERGEN TEKNOLOGIOVERFORING AS, priority 2015, published 2018)

System: Wnt/β-catenin signaling
Experiment: TOPFlash reporter assay in 293FT cells
Format: cell-based, human
Settings: 1 μM 6BIO together with drug at indicated concentrations, 24 hours
Procedure: TOPFlash assay was performed in 96-well plate. For each well, 293T cells were transfected with 0.22 μg TOPFlash (or FOPFlash with mutant TCF binding sites) and 0.02 μg pRL-SV40P using lipofectamine 3000. For co-transfection with other plasmids, 0.1 μg additional DNA was used. […] The luciferase activity was measured 24 hours later by using Dual-Glo® Luciferase Assay System (Promega, E2940) according to the recommended protocol. The TOPFlash or FOPFlash activity was normalized to Renilla luciferase signals.
TOPFlash assay was performed as described above. Briefly, for each well of a 96-well plate 293FT cells were transfected with 0.22 μg TOPFlash (or FOPFlash with mutant TCF binding sites) and 0.02 μg pRL-SV40P using lipofectamine 3000. For co-transfection with other plasmids, 0.1 μg additional DNA was used. Four hours after transfection, 293FT cells were treated with DMSO, 1 μM 6B10 and 1 μM 6B10 together with pazopanib, orlistat and topotecan at varying concentrations for 24 hours. The luciferase activity was then measured using Dual-Glo® Luciferase Assay System (Promega, E2940) according to the recommended protocol. The TOPFlash or FOPFlash activity was normalized to Renilla luciferase signals.

Structure (SMILES): CCCCCCCCCCC[C@@H](C[C@@H]1OC(=O)[C@H]1CCCCCC)OC(=O)[C@H](CC(C)C)NC=O [orlistat, (S)-((S)-1-((2S,3S)-3-Hexyl-4-oxooxetan-2-yl)tridecan-2-yl) 2-formamido-4-methylpentanoate]
- TOPFlash activity normalized to Renilla luciferase activity: Wnt signaling inhibition

Structure (SMILES): CC[C@@]1(O)C(=O)OCc2c1cc1n(c2=O)Cc2cc3c(CN(C)C)c(O)ccc3nc2-1.Cl [topotecan, (S)-10-[(dimethylamino)methyl]-4-ethyl-4,9-dihydroxy-1H-pyrano[3′,4′:6,7]indolizino[1,2-b]quinoline-3,14(4H,12H)-dione monohydrochloride]
- TOPFlash activity normalized to Renilla luciferase activity: Wnt signaling inhibition
